Assay results taken from patent publication US11364225B2, “Pharmaceutical formulation for treating symptoms of migraine and cluster headaches, and method of using the same” (BN INTELLECTUAL PROPERTIES, INC., priority 2019, dated 2022).
Read-outs that look alike come from different tables or passages of the source.

What was measured:
[1] = cited from earlier work
[2] = Treatment of migraine headache symptoms (pain phase) with an inhaled plume of particles from an active mesh nebulizer; type: in vivo, patient (adult)
Experimental: In a non-limiting example, an adult with a history of chronic migraine headaches was treated for migraine headache symptoms during the pain phase using an inhaled plume of particles from an active mesh nebulizer as described herein, and as described in U.S. patent application Ser. No. 16/836,485, titled “NEBULIZER FOR TIME-REGULATED DELIVERY”. The person was provided with an active mesh nebulizer containing a solution of sumatriptan succinate in water at 0.1996 weight % (wt %) [e.g., 4 mg sumatriptan succinate in 2 grams of water, such that (0.004 g sumatriptan succinate/2.004 g solution)*100=0.1996 wt % sumatriptan succinate] which produced a plume of particles where over 95% of the particles have individual particle diameters ranging from about 0.5 μm to about 3.0 μm. The active mesh nebulizer was configured to produce a plume of particles by nebulizing the sumatriptan succinate solution at a rate of 0.2 milliliters per minute (ml/min) for one minute, resulting in a patient dose for a first inhalation session (e.g., six 10-second inhaled plume pulses) of not more than 4 mg sumatriptan succinate.
The person had indicated in their medical history that they had regularly experienced migraine headache symptoms, at a frequency of about 3-4 episodes per week, over several months prior to the treatment.

Row | SMILES | relief time (symptom relief) ([1]; sub-lingual delivery, according to theory and belief) [min] | relief time (patient relief) ([1]; intra-nasal delivery, according to theory and belief) [min] | relief time (patient relief) ([1]; sub-cutaneous delivery, after injection) [min] | migraine headache symptoms, self-evaluated after treatment ([2]; one adult with chronic migraine, inhaled, 0.1996 wt % solution in water, six 10-second plume pulses, not more than 4 mg, evaluated after waiting 5 minutes) | remission after treatment ([2]; same patient, about 3-4 episodes per week before treatment)
1 | CN(C)CCc1c[nH]c2ccc(C[C@H]3COC(=O)N3)cc12 [zolmitriptan] | ≤ 30 | – | – | – | –
2 | CNS(=O)(=O)Cc1ccc2[nH]cc(CCN(C)C)c2c1 [sumatriptan succinate] | – | 30 to 60 | 60 to 90 | completely abated | more than seven days
